Measurements from article PMC5048153 (Scientific Reports, 2016).

Experiments:
SD rats = experiment: Forced swim test; format: in vivo, rat; details: ig. 32 mg/kg/day, days 2–15
Protocol: The detailed procedures were performed according to our previous studies. Briefly, each SD rat was placed in a vertical Plexiglas cylinder (height 50 cm; diameter 20 cm) containing 18 cm height of water at 25 ± 2 °C and was forced to swim individually for 15 min on1st day. From 2nd day to 15th day, the rats were intragastrically administered compound 6a-1 or control drugs at dosage of 32 mg/kg/day. On the 2nd day and 15th day, 30 minutes after drug treatment, each rat was placed again into water and forced to swim for 6 min. The rat behavior was recorded by a video camera placed directly facing cylinders. The duration of immobility during the last 4 minutes was analyzed by Xeye Animal behavior analysis system (Xeye Aba V3.2). The rat was considered as immobile when its moving speed was less than 20 mm/s. The dosage of is 32 mg/kg every day. The water in the cylinder was changed each trial. After each exposure, animals were partially dried with a towel and returned to their home cages. All tests were performed in a quiet room.

[1] = tested on: corticosterone injured PC12 cells; experiment: Intracellular GSH level; format: cell-based, rat; details: 200 μM corticosterone and 5 μM drug; vehicle-treated PC12 cells = 100%
Protocol: The GSH level was measured by reference of literatures’ methods[55][56] with appropriate revision. […] After being incubated on ice for 10 min, the lysate was centrifuged at 10 000 rpm for 10 min. […] The mixture was centrifuged at 3000 × g for 10 min at 4 °C, and then 200 μL of the resulting supernatant was mixed with 1 mL of phosphate buffer (100 mM, pH 8.0) and 50 μL of 5, 5-dithiobis-2-nitrobenzoic acid (DTNB).

[2] = tested on: corticosterone injured PC12 cells; experiment: Intracellular ROS level (DCF-DA); format: cell-based, rat; details: 200 μM corticosterone and 5 μM drug; vehicle-treated PC12 cells = 100%
Protocol: In brief, PC12 cells were washed with D-Hanks after drug treatment. Then cells were incubated with 2′, 7′-dichloro-fluorescein diacetate (DCF-DA, 20 μM) for 30 min at 37 °C in darkness.

[3] = tested on: corticosterone injured PC12 cells; experiment: Real-time PCR BDNF mRNA level; format: cell-based, rat; details: 200 µM corticosterone and 5 µM drug
[4] = tested on: corticosterone injured PC12 cells; experiment: Real-time PCR NGF mRNA level; format: cell-based, rat; details: 200 µM corticosterone and 5 µM drug
[5] = tested on: corticosterone injured PC12 cells; experiment: Hoechst 33258 staining (apoptosis); format: cell-based, rat; details: 200 µM corticosterone and 5 µM drug
Protocol: To detect apoptotic cells, drug treated cells were stained with the DNA dye Hoechst 33258. Cells with the indicated treatment were fixed with methanol for 10 min at 4 °C before incubation with Hoechst 33258 for 10 min at room temperature. After washes with PBS, the apoptotic cells were mounted onto slides and observed under the fluorescence microscope BX61 (Olympus, Japan). Images were captured using DP71 CCD digital camera (Olympus).

C57 mice = experiment: Acute toxicity evaluation with H&E histology; format: in vivo, mouse
Protocol: Ten mice of each group were sacrificed on the 7th day, their heart, liver, spleen, lung and kidney were harvested and H&E histological staining was performed. Then the stained tissues were observed by two pathologists in a blinded manner.

hERG K^+ channel = target: T1, hERG K^+ channel (Homo sapiens, UniProt Q12809); experiment: hERG K+ channel inhibition (QPatch); format: cell-based; details: hERG-expressing CHO cells, Qpatch 16X assay
T1 construct: expressed in transfected cells
T1 sequence (Q12809 whole entry): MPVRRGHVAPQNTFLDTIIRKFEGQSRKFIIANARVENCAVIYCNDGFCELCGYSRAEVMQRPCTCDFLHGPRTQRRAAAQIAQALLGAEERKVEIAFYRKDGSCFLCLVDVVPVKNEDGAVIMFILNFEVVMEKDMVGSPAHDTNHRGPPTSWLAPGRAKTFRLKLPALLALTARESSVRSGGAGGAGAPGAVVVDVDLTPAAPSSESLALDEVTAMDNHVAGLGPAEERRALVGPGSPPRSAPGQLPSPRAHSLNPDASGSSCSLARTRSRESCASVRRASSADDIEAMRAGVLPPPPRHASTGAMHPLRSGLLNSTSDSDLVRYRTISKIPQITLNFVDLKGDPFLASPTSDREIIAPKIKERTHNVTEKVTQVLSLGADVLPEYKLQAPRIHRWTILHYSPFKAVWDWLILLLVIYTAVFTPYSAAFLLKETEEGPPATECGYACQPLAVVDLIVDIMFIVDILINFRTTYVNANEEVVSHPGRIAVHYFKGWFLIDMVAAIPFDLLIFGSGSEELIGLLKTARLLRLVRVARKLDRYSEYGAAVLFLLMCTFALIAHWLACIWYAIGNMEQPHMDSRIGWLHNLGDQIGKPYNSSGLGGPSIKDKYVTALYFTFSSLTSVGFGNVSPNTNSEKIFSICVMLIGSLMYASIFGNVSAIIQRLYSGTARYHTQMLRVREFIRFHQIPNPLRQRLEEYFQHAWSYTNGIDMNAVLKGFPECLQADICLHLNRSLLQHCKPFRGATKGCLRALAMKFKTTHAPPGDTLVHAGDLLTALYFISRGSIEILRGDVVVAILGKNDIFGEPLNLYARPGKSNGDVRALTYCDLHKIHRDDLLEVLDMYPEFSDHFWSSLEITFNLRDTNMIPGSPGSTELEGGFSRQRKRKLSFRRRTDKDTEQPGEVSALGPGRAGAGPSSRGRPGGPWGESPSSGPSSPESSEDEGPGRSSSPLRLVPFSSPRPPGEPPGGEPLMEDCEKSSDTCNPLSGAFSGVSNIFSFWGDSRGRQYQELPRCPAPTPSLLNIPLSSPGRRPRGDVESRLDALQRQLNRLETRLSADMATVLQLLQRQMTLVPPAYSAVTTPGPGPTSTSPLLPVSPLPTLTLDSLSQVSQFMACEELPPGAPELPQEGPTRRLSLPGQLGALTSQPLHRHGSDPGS
Protocol: In brief, A Chinese hamster ovary (CHO) cell line stably expressing hERG potassium channels were cultured into appropriate cell density. Then cells were automatically prepared for application to chips. Whole-cell recordings were performed using automated QPatch (Sophion) and the data were analyzed using Assay Software provided by Graphpad Prism 5.0.

Row | Structure (SMILES) | mean immobility time reduced compared to the model group (SD rats) | GSH level [1] | ROS level [2] | BDNF mRNA level increase compared with corticosterone-injured group [3] | NGF mRNA level [4] | apoptosis of PC12 cells induced by corticosterone [5] | heart histology (H&E) (C57 mice; 140 mg/kg/day, 7th day) | kidney histology (H&E) (C57 mice; 140 mg/kg/day, 7th day) | liver histology (H&E) (C57 mice; 140 mg/kg/day, 7th day) | lung histology (H&E) (C57 mice; 140 mg/kg/day, 7th day) | spleen histology (H&E) (C57 mice; 140 mg/kg/day, 7th day) | clinical signs of toxicity (C57 mice; intragastric 140 mg/kg/day, 7-day administration) | IC50 (hERG K^+ channel)
1 | COc1ccc2c(c1)C(CCNC(C)=O)=NCC2.O=C(O)C(=O)O [6a-1, N-(2-(7-Methoxy-3,4-dihydroisoquinolin-1-yl)ethyl) acetamide oxalate] | 62.5% | 87.7% | 140.3% | 42.8% | does not change | effectively reversed apoptosis | cardiac myocytes were fragmented and arranged promiscuously | did not show any significant difference compared with normal | hepatic cords were distinctly clear | did not show any significant difference compared with normal | unchanged | No visible clinical signs of toxicity | > 40 µM
2 | COc1ccc2cccc(CCNC(C)=O)c2c1 [Agomelatine, reference compound] | 8.4% | 93.4% | 125.0% | 37.2% | – | – | no necrosis, hemorrhage or inflammatory exudates were observed | – | severely damaged | – | unchanged | – | –
